Drawing on PubChem BioAssay AID489040 (Sanford-Burnham Center for Chemical Genomics, 2010), this text covers EC50 for 89 compounds.

The structures appear in SMILES notation. pEC50: −log10 of the molar value. Calls of active or inactive are those of the source.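 The calls were made as follows: active = mean half-maximal activating concentration from the dose-response fit at or below a set limit; inactive = the rest.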 Bounds are passed on as bounds.

By EC50 is commonly meant the concentration at which the effect is half-maximal. What is called pEC50 is the EC50 on a negative log10 scale, so that one unit is a factor of ten.

This experiment deals with CHO-XBP1 luciferase reporter, IRE1-XBP1 UPR activation. As to the kind of experiment: activators of IRE1-XBP1 UPR arm, dose response, counter-screen for apoptotic UPR arm activators, CHO-XBP1 cells, luminescence (AID 489040;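 also: reporter read after six hours of compound exposure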). (Counterscreens check selectivity or assay interference.)
Consider `Oc1c(C(Nc2ccccn2)c2ccccn2)ccc2cccnc12` (centres undefined), for which the EC50 was > 80 µM (inactive).
Same read-out and setting: with `O=C(/C(=N/N=C/c1ccc(O)c(O)c1)c1ccccc1)c1ccccc1` the figure was > 80 µM (inactive); with `C/C(=N\NC(=O)c1cc(Br)ccc1O)c1ccccn1`, > 80 µM (inactive).
Same read-out and setting: the value for `CCn1c(O)c(C2=c3ccccc3=NC2=O)c2cc(Br)ccc21` was > 80 µM (inactive); that for `O=C(N/N=C(\c1ccccc1)c1ccccn1)c1cccc([N+](=O)[O-])c1` was > 80 µM (inactive); that for `CCC(=O)Nc1ccc(C(=O)Cn2ncc(Cl)c(Cl)c2=O)cc1` was > 80 µM (inactive).
Same read-out and setting: with `C/C(=N\NC(=O)c1ccc(Cl)c(Cl)c1)c1ccccn1` the figure was > 80 µM (inactive); with `O=C(CCC(=O)Nc1ccc(Cl)cc1Cl)N/N=C/c1ccc([N+](=O)[O-])o1`, > 80 µM (inactive).
For the compound `Cc1sc(NC(=O)c2cc(-c3ccc(Cl)cc3)nc3ccccc23)c(C(N)=O)c1C`, the pEC50 is 4.82.
For the compound `CCOc1ccc2c(c1)C(=NNC(=O)c1ccncc1)c1cc(OCC)ccc1-2`, the EC50 is > 80 µM (inactive).
As for `CCc1nn(-c2cc(Oc3cccc4ccccc34)nc(-c3ccccc3)n2)c(N)c1C#N`, the EC50 result is “inactive”.
For the compound `Cc1cc(O)c(-c2cc(O)c(C)cc2O)cc1O`, the EC50 is > 80 µM (inactive).
Same read-out and setting: the value for `Cc1nc([N+](=O)[O-])c(Br)n1CC(=O)c1ccc(Br)cc1` was > 80 µM (inactive); that for `Cc1ccc2cccc(NS(=O)(=O)c3ccccc3)c2n1` was > 80 µM (inactive); that for `O=C(/C=C/Sc1ccc(C(F)(F)F)cn1)c1ccccc1` was > 80 µM (inactive).
On the same count and under the same terms, the value for `CCOc1ccc(N2C(=O)/C(=C\c3cccs3)C(=O)NC2=S)cc1` was > 80 µM (inactive).
For the compound `CN1/C(=C\C(=O)COC(=O)c2ccc(O)c(O)c2)C(C)(C)c2ccccc21`, the pEC50 is 5.00.
As to `CC(C)N=c1scc(-c2cccs2)n1/N=C/c1ccc(O)c(O)c1O`, the EC50 is > 80 µM (inactive).
Same read-out and setting: with `O=Cc1ccc(O)c2ncccc12` the figure was > 80 µM (inactive).
The same measure, in the same setting: the value for `CC(C)N1C(=O)/C(=C/C=C/c2ccco2)C(=O)N(Cc2ccco2)C1=O` was > 80 µM (inactive); that for `COc1ccc(-c2csc3nc(-c4ccc(C)cc4)oc(=O)c23)cc1OC` was > 80 µM (inactive); that for `Cc1cc(C(=O)c2ccc(C(C)(C)C)cc2)c(NC(=O)CCl)s1` was > 80 µM (inactive).
For `Brc1ccc(-c2ccc(/C=N/Nc3nncc(-c4ccccc4)n3)o2)cc1`, the EC50 result is “inactive”.
Take `O=C(NCCc1ccc(F)cc1)c1coc(=O)c(Br)c1`: the EC50 was > 80 µM (inactive).
Same read-out and setting: with `O=C1C(CSCc2ccccc2)NC(=S)N1c1ccccc1` (centres undefined) the figure was > 80 µM (inactive); with `Cc1ccc(CN2CCN(/N=C/c3ccc(O)c(O)c3)CC2)cc1`, > 80 µM (inactive).
The same measure, in the same setting: with `CC(C)(C)c1ccc(/C=C(\c2nc3ccccc3[nH]2)S(=O)(=O)c2ccccc2)cc1` the figure was > 80 µM (inactive).
Regarding `Oc1ccc(/C=N/Nc2cc(N3CCOCC3)nc(N3CCOCC3)n2)cc1O`, the EC50 is > 80 µM (inactive).
Same read-out and setting: with `Cc1ccc(N2C(=O)NC(=O)/C(=C/c3cnn(-c4ccc(C)cc4)c3)C2=O)cc1` the figure was > 80 µM (inactive); with `Cc1ccccc1NC(=O)c1ccc(N/N=C/c2ccccc2O)c([N+](=O)[O-])c1`, > 80 µM (inactive); with `Oc1c(Cl)cc(CN2CCCCC2)c2cccnc12`, > 80 µM (inactive).
Take `O=C(COc1ccc(/C=N/NC(=O)c2cc3ccccc3o2)cc1Br)Nc1ccccc1`: the pEC50 was 5.33.
Consider `COC(=O)C(=Cc1ccc(OCc2ccc([N+](=O)[O-])cc2)c(OC)c1)C(=O)OC`, for which the EC50 is > 80 µM (inactive).
As for `CCOc1cc(/C=C2/C(=N)N3C=CSC3=NC2=O)ccc1OCCCOc1ccccc1C`, the pEC50 is 4.70.
Turning to `CSC(=S)N/N=C(\C)c1ccccc1`, the EC50 was > 80 µM (inactive).
Same read-out and setting: the value for `Oc1cc(-c2cccnc2)cc2cccnc12` was “inactive”; that for `C/C(=N\NC(=O)C(c1ccccc1)c1ccccc1)c1ccccn1` was > 80 µM (inactive); that for `O=c1cc(C(Cl)(Cl)Cl)oc2c1ccc1ccccc12` was “inactive”.
Take `FC(F)(F)c1nnc2c(Sc3ccccc3)nc3ccc(Cl)cc3n12`: the pEC50 was 5.01.
As to `O=C1CC(c2cccc(Cl)c2)CC(O)=C1C=Nc1ccccc1` (centres undefined), the EC50 was > 80 µM (inactive).
On to `CCOC(=O)C1CCN(Cc2ccc(O)c3ncccc23)CC1`, for which the EC50 was > 80 µM (inactive).
The same measure, in the same setting: the value for `Cc1ccc(-c2nn(-c3ccccc3)cc2C=C2C(=O)CC(C)(C)CC2=O)cc1` was > 80 µM (inactive); that for `O=C(Nc1ccc(-c2nc3ncccc3o2)cc1)c1ccc([N+](=O)[O-])o1` was > 80 µM (inactive); that for `CC1CCCCC1N1CN=C(Nc2nc3ccccc3s2)NC1` (centres undefined) was > 80 µM (inactive).
In the case of `O=C(Nc1nc2ccc(F)cc2s1)c1ccccn1`, the EC50 is > 80 µM (inactive).
In the case of `O=C(Nc1ccc(S(=O)(=O)N2CCCC2)cc1)c1ccc([N+](=O)[O-])o1`, the EC50 is > 80 µM (inactive).
For `CCSC1(SCC)N=C(N)C2(C#N)C(c3ccc(F)cc3)C12C#N` (centres undefined), the EC50 was > 80 µM (inactive).
On to `Oc1ccc(-c2cn3ccccc3n2)cc1O`, for which the EC50 is > 80 µM (inactive).
`COc1cccc2sc(N3CCN(c4nc5ccccc5s4)CC3)nc12`: the pEC50 was 4.73.
As to `COc1ccc(C(=O)C(CN2CCOCC2)c2ccccc2)cc1` (centres undefined), the EC50 was > 80 µM (inactive).
The same measure, in the same setting: the value for `Cc1cccc(Nc2nc3c(S(=O)(=O)c4ccccc4)nnn3c3ccccc23)c1C` was “inactive”.
Take `CCCCCCCC(=O)Nc1ccc(C(=O)N/N=C/c2cccc([N+](=O)[O-])c2)cc1`: the pEC50 is 4.76.
For `CCOC(=O)N1CCN(Cc2ccc(O)c3ncccc23)CC1`, the EC50 was > 80 µM (inactive).
In the case of `CC(C)(C)C(=O)OCc1nc(-c2ccc(O)c(O)c2)cs1`, the EC50 is > 80 µM (inactive).
For the compound `Oc1ccc2ccccc2c1N=Nc1ccccn1`, the EC50 was > 80 µM (inactive).
With `COc1ccc(/C=C/c2ccc3cccc(O)c3n2)c(OC)c1OC`, the EC50 was > 80 µM (inactive).
For the compound `CCOC(=O)c1cnc(Nc2nc3ccccc3o2)nc1CSC(=S)N(CC)CC`, the pEC50 was 5.34.
With `O=c1[nH]c(=S)n(C2CC2)c(O)c1C=Nc1cccc(C(F)(F)F)c1`, the EC50 is > 80 µM (inactive).
Take `O=C(NC(=S)Nc1ccc(NC(=O)c2cccs2)cc1)c1cc2ccccc2o1`: the EC50 is > 80 µM (inactive).
Regarding `O=C(N/N=C/c1ccccn1)c1cc(-c2ccc(Br)cc2)nc2ccccc12`, the EC50 is > 80 µM (inactive).
Regarding `O=C(CCl)c1ccc(Cc2ncc(C(F)(F)F)cc2Cl)s1`, the EC50 was > 80 µM (inactive).
Still for that read-out and setting: the value for `O=C(NCc1ccccc1Cl)c1cccc2c1C(=O)c1ccc(-c3ccc(OC(F)(F)F)cc3)cc1S2(=O)=O` was “inactive”; that for `Cc1ccc(NC(=O)c2ccc([N+](=O)[O-])o2)cc1S(=O)(=O)N1CCOCC1` was > 80 µM (inactive).
Still for that read-out and setting: the value for `O=C(Nc1ccc2oc(-c3ccncc3)nc2c1)c1ccc([N+](=O)[O-])o1` was > 80 µM (inactive); that for `CCOC(=O)c1c2ccc(OCC(=O)N/N=C/c3ccc(C)cc3)cc2n2ccccc12` was > 80 µM (inactive); that for `Cc1cc(C)cc(NC(=O)/C(C#N)=C/c2cn(CC(=O)NCc3ccco3)c3ccccc23)c1` was > 80 µM (inactive).
Same read-out and setting: with `O=C(/C(=C/c1cccc(Cl)c1)c1nc2ccccc2[nH]1)c1ccccc1` the figure was > 80 µM (inactive); with `Cc1nc(SCC(=O)Nc2ccc(F)cc2)c(C#N)c(C)c1CC(=O)c1ccc(Br)cc1`, > 80 µM (inactive); with `CC1=NOC(=O)/C1=C/c1ccc(-c2ccc(Cl)cc2)o1`, > 80 µM (inactive).
Take `Cc1nc(NC(=O)/C=C/c2ccccc2)n[nH]1`: the EC50 was > 80 µM (inactive).
Still for that read-out and setting: with `Cc1nn(Cc2c(Cl)cccc2Cl)c(C)c1NC(=O)c1sc2ccccc2c1Cl` the entry was “inactive”; with `COc1cccc2sc(Nc3nc(C)c(C(C)=O)s3)nc12`, > 80 µM (inactive); with `Cc1ccc2[nH]cc(C(=O)CCl)c2c1`, > 80 µM (inactive).
On the same count and under the same terms, the value for `Cc1ccc(-c2nc(SCC(=O)Nc3cc(C)on3)c3c(=O)n(C)c(=O)n(C)c3n2)cc1` was “inactive”.
Regarding `O=C(CSc1nc2ccc(Nc3nc(N4CCOCC4)nc(N4CCOCC4)n3)cc2s1)Nc1ccccc1F`, the pEC50 was 5.25.
For `CC(C)N1CSC(=S)N(Cc2ccccc2)C1`, the EC50 is > 80 µM (inactive).
The same measure, in the same setting: the value for `Cn1nc([N+](=O)[O-])c(C(C#N)c2ccccn2)c(Cl)c1=O` (centres undefined) was > 80 µM (inactive).
For `CCOC(=O)c1c(C)oc2c1c(C(c1ccccc1)N1CCOCC1)c(O)c1ccccc12` (centres undefined), the EC50 is > 80 µM (inactive).
Consider `CC1=C(CC/C(C)=N/NC(N)=S)C(C)(C)CCC1`, for which the EC50 entry was “inactive”.
On the same count and under the same terms, with `Cc1ccc(C)c(N=Cc2c(O)c3ccccc3oc2=O)c1` the entry was “inactive”.
`COc1ccc(N=c2oc3ccc(OC)cc3cc2-c2nc3ccccc3[nH]2)cc1`: the pEC50 was 4.90.
Regarding `Cc1c(C#N)c(NC(=O)CCl)n(Cc2ccccc2)c1C`, the EC50 was > 80 µM (inactive).
In the case of `CCc1cc2c(=O)c(-c3cnn(-c4ccccc4)c3)c(C)oc2cc1OCC(=O)Nc1cccc(C)c1`, the EC50 result is “inactive”.
Still for that read-out and setting: the value for `Cc1ccc(/C=C/C(=O)c2ccc([N+](=O)[O-])o2)cc1` was > 80 µM (inactive); that for `Cc1noc2ncnc(Sc3ccc(Br)cc3)c12` was > 80 µM (inactive).
Same read-out and setting: with `Cc1nc([N+](=O)[O-])c(Br)n1CC(=O)c1ccc(Cl)cc1` the figure was > 80 µM (inactive).
On the same count and under the same terms, the value for `Cc1ccc(C(C[N+](=O)[O-])n2nc(C)cc2C)cc1` (centres undefined) was > 80 µM (inactive).
As to `Cc1noc2ncnc(Sc3ccc(Cl)cc3)c12`, the EC50 was > 80 µM (inactive).
Still for that read-out and setting: the value for `CSc1nnc(NC(=O)c2nc(S(=O)(=O)Cc3ccc(C)cc3)ncc2Cl)s1` was > 80 µM (inactive).
